Among the test systems are HOP-62 NSCLC; SF-268 CNS; OVCAR-5 ovarian; NCI-H460 lung; HL-60(TB) leukemia; COLO 205 colon; MOLT-4 leukemia; HOP-92 NSCLC; SK-MEL-2 melanoma; NCI-H23 lung.
Common to all, as to experiment: inhibition of tumour cell growth, NCI panel, 48 h

Each structure is given as a SMILES string.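 Values below derive from 48-hour exposures of cells grown in 96-well plates, with endpoints linearly interpolated between the two concentrations bracketing the appropriate inhibition level. Here, GI50 denotes the concentration required for 50% inhibition of growth. TGI is the concentration that stops growth completely.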

As to `O=C1CCC(c2ccccc2)=NN1c1nsc2ccccc12`, the TGI in the assay on HOP-62 NSCLC, with SF-268 CNS, with OVCAR-5 ovarian, in the assay on NCI-H460 lung, with HL-60(TB) leukemia and in the assay on COLO 205 colon was greater than 100 µM in each case. Moreover, the TGI in the assay on MOLT-4 leukemia, in the assay on HOP-92 NSCLC, with SK-MEL-2 melanoma and with NCI-H23 lung was greater than 100 µM each time.
`O=C1CC2(CCC(O)(c3ccc4ccccc4c3)C(C(=O)c3ccc4ccccc4c3)C2)C(=O)c2ccccc2N1` (stereo not given): the TGI in the assay with HOP-62 NSCLC, in the assay on SF-268 CNS, with OVCAR-5 ovarian, in the assay on NCI-H460 lung, in the assay with HL-60(TB) leukemia and in the assay on COLO 205 colon was greater than 100 µM throughout. The TGI in the assay with MOLT-4 leukemia, in the assay on HOP-92 NSCLC, in the assay with SK-MEL-2 melanoma and in the assay with NCI-H23 lung was greater than 100 µM each time.
On to `COc1cnc2c(c1)C(=O)c1c-2n(CCCN2CCOCC2)c(=O)c2cc(Cl)ccc12`, for which the GI50 in the assay with HOP-62 NSCLC is 0.274 µM; in the assay on SF-268 CNS, 0.288 µM; in the assay on OVCAR-5 ovarian, greater than 100 µM; in the assay with NCI-H460 lung, 0.0701 µM; in the assay with HL-60(TB) leukemia, 0.455 µM; in the assay on COLO 205 colon it was 0.193 µM. The GI50 was 0.267 µM in the assay on MOLT-4 leukemia, 32.7 µM in the assay on HOP-92 NSCLC, 30.5 µM with SK-MEL-2 melanoma and 0.308 µM in the assay on NCI-H23 lung. Besides, the TGI with HOP-62 NSCLC is 22.4 µM; with SF-268 CNS, greater than 100 µM; in the assay with OVCAR-5 ovarian, greater than 100 µM; with NCI-H460 lung it was greater than 100 µM; in the assay with HL-60(TB) leukemia it was greater than 100 µM; in the assay with COLO 205 colon, greater than 100 µM. The TGI in the assay with MOLT-4 leukemia, with HOP-92 NSCLC, with SK-MEL-2 melanoma and in the assay on NCI-H23 lung was greater than 100 µM in each case.
Consider `COc1cccc(N2C(Cl)C(=O)C2c2c[nH]c3ccccc23)c1` (stereo not given), for which the TGI with HOP-62 NSCLC, in the assay with SF-268 CNS, with OVCAR-5 ovarian, in the assay with NCI-H460 lung, in the assay on HL-60(TB) leukemia and in the assay with COLO 205 colon was greater than 100 µM throughout. The TGI in the assay with MOLT-4 leukemia, in the assay with HOP-92 NSCLC, in the assay with SK-MEL-2 melanoma and with NCI-H23 lung was greater than 100 µM each time.
With `Nc1ncc(-c2ccc3ncnc(Nc4ccc(F)c(Cl)c4)c3c2)cn1`, the GI50 is 1.7 µM in the assay on HOP-62 NSCLC; 2.48 µM in the assay with SF-268 CNS; 1.02 µM with OVCAR-5 ovarian; 1.44 µM with NCI-H460 lung; 10.6 µM with HL-60(TB) leukemia; 2.5 µM with COLO 205 colon. Besides, the GI50 with MOLT-4 leukemia is 2.24 µM; in the assay with HOP-92 NSCLC it was 1.03 µM; in the assay on SK-MEL-2 melanoma it was 18.2 µM; in the assay on NCI-H23 lung, 2.81 µM. For the same compound, the TGI with HOP-62 NSCLC turned out to be 4.45 µM; with SF-268 CNS it was 68.5 µM; in the assay on OVCAR-5 ovarian, 3.69 µM; in the assay on NCI-H460 lung, 2.96 µM; in the assay with HL-60(TB) leukemia, 29.7 µM; in the assay with COLO 205 colon, 11.2 µM. Also, the TGI in the assay with MOLT-4 leukemia came to 9.33 µM; in the assay with HOP-92 NSCLC, 3.52 µM; with SK-MEL-2 melanoma, 39.9 µM; in the assay on NCI-H23 lung, 39.3 µM.
Consider `O=c1oc2cc(O)ccc2c(O)c1C(c1ccccc1)c1c(O)c2ccc(O)cc2oc1=O`, for which the TGI with HOP-62 NSCLC, in the assay with SF-268 CNS, with OVCAR-5 ovarian, in the assay with NCI-H460 lung, in the assay with HL-60(TB) leukemia and with COLO 205 colon was greater than 100 µM each time. The TGI in the assay with MOLT-4 leukemia, in the assay on HOP-92 NSCLC, with SK-MEL-2 melanoma and with NCI-H23 lung was greater than 100 µM throughout.
